Measured values from patent US20180318199A1, “Pharmaceutical Composition Having Anti-Aging Properties against High-Glucose” (TAIWAN LEADER BIOTECH CORP., priority 2017, published 2018).
Entries after “also recorded” stand apart in the source; their conditions may differ.

Assays:
HNDFs = test: Trypan blue exclusion cell proliferation assay in HNDFs; assay type: cell-based, human; settings: 72 h
Protocol: To further clarify the effect of antcins, HG-induced reduction in cell proliferation is determined. In FIG. 2D, to determine the effect of antcins on cell proliferation efficacy, 5×10^4 cells/well of HNDFs are incubated with antcins in 6-well plates in the presence of HG (30 mM) for 72 h. Number of viable cells is quantified by the tryphan blue exclusion method. Results are expressed as mean±S.E.M of three indipendent expriments. Statistical significance is set at ^ϕP<0.05 as compared to NG vs. HG and *P<0.05 as compared to HG vs. samples. […] Therefore, the molecular mechanism underlying the protective effect of ANM is explored next.
Furthermore, in FIG. 3C, to determine the effect of ANM or NAC on cell proliferation, 5×10^4 cells/well of HNDFs are incubated in a 6-well plate with ANM (10 μM) or NAC (100 μM) in the presence of HG (30 mM) for 72 h. Number of viable cells is quantified by the tryphan blue exclusion method. Results expressed as mean±S.E.M of three independent experiments. Statistical significance is set at ^ϕP<0.05 as compared to NG vs. HG and *P<0.05 as compared to HG vs. samples.
Cell proliferation is evaluated using trypan blue exclusion assay as described previously with minor modification. Cells are plated into 6-well plates at a density of 5×10^4 cells/well. After incubation overnight, cells are treated with test samples in the presence or absence of HG for 24-72 h. Cells exposed to 0.2% Trypan blue are then counted in a hemocytometer, and cells stained with Trypan blue are excluded. Percentage of viable cells is calculated based on the ratio of viable cells to total cell population in each well. The proliferation rate is calculated based on the number of viable cells in HG or sample-treated groups versus the NG-treated group.

wild-type N2 C. elegans = test: C. elegans oxidative stress-resistance assay (Juglone); assay type: in vivo, Caenorhabditis elegans; settings: pretreatment 10 μM, 3 days; 250 μM Juglone 2.5, 3.5 and 4.5 h
Protocol: Please refer to FIG. 8A˜FIG. 8C, which are views showing the life span of wild-type C. elegans extended by ANM from oxidative stress. As shown in the figures, to further confirm the anti-oxidative property of ANM in vivo, C. elegans model is subjected. Wild-type N2 worms are pretreated with ANM for 3 days followed by exposure to oxidative stress. In FIG. 8A, to determine oxidative stress resistance, age synchronized wild-type L1 larvae are pretreated with ANM (10 and 20 μM) or DMSO (0.01%) for 3 days. Oxidative stress is induced by incubation of pre-treated worms with 250 μM Juglone for 2.5, 3.5 and 4.5 h and then scored for viability. Results are expressed as mean±S.E.M of three independent experiments. Statistical significance is ser at *P<0.05 as compared to control vs. sample treatment.
Age synchronized L1 larvae are incubated with liquid S-basal medium containing E. coli OP50 at a density of 1×10^9 cells. MI and 10 and 20 μM ANM or 0.01% DMSO (vehicle control) for 3 days. Subsequently, adult worms are subjected to oxidative stress assay. To induce oxidative stress, worms are incubated with Juglone (5-hydroxyl-1,4-naphthoquinone; Sigma), an ROS-generating agent. ANM treated and control worms are transferred to S-basal medium containing 250 μM Juglone, and incubated from 2.5, 3.5 and 4.5 h. After treatment, viable worms are scored. […] The test is performed triplicate.

HUVECs [1] = test: MTT cell viability in HUVECs; assay type: cell-based, human; settings: 48 h
Protocol: Please refer to FIG. 9A˜FIG. 9H, which are views showing HG-induced senescence prevented by ANM in human umbilical vein endothelial cells (HUVECs). As shown in the figures, to further delineate the protective effects of ANM on another cell system, experiments are designed to investigate the protective effect of ANM on HUVECs incubated in media containing either NG or HG alone or with ANM for 48 h. Cell viability is measured by MTT assay. […] Cell viability is determined by MTT assay. Percentage of viable cells are normalized with control cells (NG). […] In addition, in FIG. 9B, cellular senescence is determined by SA-β-gal activity assay. […] In addition, in FIG. 9C and FIG. 9D, total cell lysate is extracted and senescence-associated marker proteins including p16^INK4A, p21^CIP1 total and acetylated p53 and FoxO1 are measured by western blot analysis.
Cell viability is assessed by MTT colorimetric assay. Briefly, HNDFs (2×10^4cells/well) or HUVECs (5×10^4 cells/well) are seeded in a 24-well culture plate. […] The MTT formazan crystals are dissolved in 400 μL of DMSO and the samples are measured at 570 nm (A540) using an ELISA microplate reader (Bio-Tek Instruments, Winooski, Vt.). The percentage of cell viability (%) is calculated as (A570 of treated cells/A570 of untreated cells)×100.

HUVECs [2] = test: Intracellular ROS (DCFH-DA assay) in HUVECs; assay type: cell-based, human; settings: ANM 10 μM + HG 30 mM, 48 h; HG alone 14.3-fold
Protocol: The intracellular ROS level is quantified by utilizing DCFH-DA assay. […] However, treatment of HUVECs with ANM resulted reduced ROS levels (6.1-fold), compared with HUVECs in HG that are not treated with ANM. In addition, in FIG. 9G, western blot analysis is performed to determine the protein expression levels of HO-1 and NQO-1.

C=C(CCC(C)C1CCC2C3=C(C(=O)C(O)C21C)C1(C)CCC(O)C(C)C1CC3)C(C)C(=O)O (stereo not drawn) [ANM, antcin M] was tested, and the “HG-induced reduction in cell number, control siRNA cells” value (HNDFs; ANM 10 μM + HG) was “significantly blocked”, the “protection of cell number, SIRT-1 siRNA transfected cells” value (HNDFs; ANM 10 μM + HG) was “partial protection” and the “HG-induced reduction in cell proliferation, Nrf2 knock-down cells” value (HNDFs; ANM + HG) was “partially inhibited”. The “cell proliferation, Nrf2 and SIRT-1 knock-down cells” value (HNDFs; ANM + HG) was “fails to rescue”, the “cell proliferation (number of viable cells) vs HG group” value (HNDFs; antcins 10 μM + HG 30 mM, trypan blue exclusion) was “two-fold increase; also recorded: increased cell proliferation” and the “survival rate of worms exposed to Juglone-induced oxidative stress” value (wild-type N2 C. elegans) was “significantly increases”. The “number of viable HUVECs under HG” value (HUVECs [1]; ANM 10 μM or RES 5 μM + HG 30 mM, HG alone 35.01%) was 79.78%, the “cell viability of HUVECs, compound alone” value (HUVECs [1]; ANM 10 μM or RES 5 μM) was “does not affect cell viability” and the “intracellular ROS levels in HUVECs” value (HUVECs [2]) was 6.1 fold.
